The text below walks through data of patent publication US10966426B2, “Herbicidal compositions comprising phenylpyrimidines” (BASF SE, priority 2016, dated 2021).

Holding throughout (assay type): in vivo
Test [1] concerns Alopecurus myosuroides. As to the kind of experiment: greenhouse post-emergence treatment, ALOMY. Particulars: Alopecurus myosuroides, 480 h, 20 DAT, ALOMY. On the procedure: (§1) The culture containers used were plastic pots containing loamy sand with approximately 3.0% of humus as substrate. The seeds of the test plants were sown separately for each species.
(§2) To this end, the test plants were either sown directly, and grown in the same containers, or they were first grown separately as seedlings and transplanted into the test containers a few days prior to treatment.
(§3) Depending on the species, the plants were kept at 10-25° C. and 20-35° C., respectively.
(§4) The test period extended over 2 to 4 weeks. During this time, the plants were tended and their response to the individual treatments was evaluated.
(§5) Evaluation was carried out using a scale from 0 to 100. 100 means no emergence of the plants, or complete destruction of at least the above-ground parts, and 0 means no damage or normal course of growth. A good herbicidal activity is given at values of at least 70, and very good herbicidal activity is given at values of at least 85.
(§6) In the examples, the solvent used was water.
(§7) In the examples below, using the method of S. R. Colby (1967) “Calculating synergistic and antagonistic responses of herbicide combinations”, Weeds 15, p. […] E=X+Y−(X·Y/100) where X=effect in percent using herbicide A at an application rate a; • Y=effect in percent using herbicide B at application rate b; • E=expected effect (in %) of herbicide A+herbicide B at application rates a+b.

For test [2], the system named is Avena fatua. As to the kind of experiment: greenhouse post-emergence treatment, AVEFA. Particulars: Avena fatua, 480 h, solo, EC 50 g/l, AVEFA, 7.5 gai/ha, 20 DAT. The protocol:
as §1, §2, §3, §4, §5, §6, §7

Test [3] has as its system Digitaria sanguinalis. The test can be described thus: greenhouse post-emergence treatment, DIGSA. The note with it: Digitaria sanguinalis, 480 h, 20 DAT. The protocol: as §1, §2, §3, §4, §5, §6, §7
Test [4] concerns Bromus sterilis. As to the kind of experiment: greenhouse post-emergence treatment, BROST. The note with it: Bromus sterilis, 480 h, 20 DAT. The protocol: as §1, §2, §3, §4, §5, §6, §7
Test [5] deals with Brachiaria decumbens. As to the kind of experiment: greenhouse post-emergence treatment, BRADC. Particulars: Urochloa decumbens, 480 h, 20 DAT. The protocol:
as §1
For the post-emergence treatment, the test plants were grown to a plant height of from 3 to 15 cm, depending on the plant habit, and only then treated with the active compounds which had been suspended or emulsified in water. To this end, the test plants were either sown directly, and grown in the same containers, or they were first grown separately as seedlings and transplanted into the test containers a few days prior to treatment.
as §3, §4, §5
The respective stated components A and B, and if appropriate, C were formulated as a 10% by weight strength emulsion concentrate and, with addition of the amount of solvent system, introduced into the spray liquor used for applying the active compound. In the examples, the solvent used was water.
In the examples below, using the method of S. R. Colby (1967) “Calculating synergistic and antagonistic responses of herbicide combinations”, Weeds 15, p. 22ff., the value E, which is expected if the activity of the individual active compounds is only additive, was calculated. E=X+Y−(X·Y/100) where X=effect in percent using herbicide A at an application rate a; • Y=effect in percent using herbicide B at application rate b; • E=expected effect (in %) of herbicide A+herbicide B at application rates a+b.

A word on the inhibition: it is the change of the read-out against control, counted positive when it falls. As usually defined, the pest or weed control is the degree to which the test organism was suppressed or injured, in per cent.

In the case of `CCc1cc(C)cc(CC)c1-c1c(OC(=O)C(C)(C)C)n2n(c1=O)CCOCC2` [pinoxaden], the inhibition at […] in test [1] (pinoxaden solo 7.5 gai/ha) came out at 75%. In addition, the inhibition at 60 g/ha in test [1] (pinoxaden solo 60 gai/ha) came to 94%. The pest or weed control at […] in test [1] (solo, EC 50 g/l, 7.5 gai/ha) was 48%; in test [2], 33%.

In the case of `COc1nc(C)nc(NC(=O)NS(=O)(=O)c2cc(I)ccc2C(=O)O)n1` [iodosulfuron], the inhibition at 1.25 g/ha in test [3] (iodosulfuron solo 1.25 gai/ha) and in test [4] (iodosulfuron solo 1.25 gai/ha) was 0% each time. Moreover, the inhibition at […] in test [3] (iodosulfuron solo 2.5 gai/ha) was found to be 20%; in test [4] (iodosulfuron solo 2.5 gai/ha), 0%; in test [5] (iodosulfuron solo 2.5 gai/ha) it was 20%. The figures for the inhibition at 5 g/ha in test [3] (iodosulfuron solo 5 gai/ha), in test [4] (iodosulfuron solo 5 gai/ha) and in test [5] (iodosulfuron solo 5 gai/ha) were 50%, 0% and 30%, respectively.
